Structures can show the parent of a compound that is named as a salt.
molecular target: T1, full length SGK1 (Homo sapiens, UniProt O00141); assay: SGK1 inhibition Assay A (Caliper LabChip electrophoretic separation of fluorescent peptide substrate and phosphorylated product); format: biochemical; conditions: Assay A; 20 μM ATP, 40 min incubation; read-out: SGK1 IC50
T1 construct: 125 μM full length SGK1 (Life Technologies Part #PR7358A); purchased Life Technologies PR7358A
T1 sequence (O00141 1-431): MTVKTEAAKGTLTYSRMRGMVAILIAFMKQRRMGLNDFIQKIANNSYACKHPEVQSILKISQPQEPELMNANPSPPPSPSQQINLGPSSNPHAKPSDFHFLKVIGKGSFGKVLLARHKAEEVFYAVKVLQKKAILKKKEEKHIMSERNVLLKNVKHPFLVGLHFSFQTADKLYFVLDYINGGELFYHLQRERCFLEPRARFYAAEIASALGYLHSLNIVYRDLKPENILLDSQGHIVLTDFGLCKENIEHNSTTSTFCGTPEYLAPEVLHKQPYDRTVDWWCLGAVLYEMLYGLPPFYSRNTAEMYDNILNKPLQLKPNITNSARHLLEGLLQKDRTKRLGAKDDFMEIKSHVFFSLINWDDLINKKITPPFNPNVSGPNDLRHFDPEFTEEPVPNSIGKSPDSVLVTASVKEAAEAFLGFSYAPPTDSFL

| IC50 | Compound |
| --- | --- |
| 0.366 µM | CC(=O)N1CC=C(c2cc(N3CCC[C@@H](NC(=O)c4nc(F)ccc4N4CCN(C)CC4)C3)c3c(N)ncnn23)C1 [Example 745, (R)-N-(1-(7-(1-acetyl-2,5-dihydro-1H-pyrrol-3-yl)-4-aminopyrrolo[2,1-f][1,2,4]triazin-5-yl)piperidin-3-yl)-6-fluoro-3-(4-methylpiperazin-1-yl)picolinamide] |
| 0.118 µM | N#Cc1ncc(-c2cc(N3CCC[C@@H](NC(=O)c4ccc(C(F)F)s4)C3)c3c(N)ncnn23)cc1F [Example 523, (R)-N-(1-(4-amino-7-(6-cyano-5-fluoropyridin-3-yl)pyrrolo[2,1-f][1,2,4]triazin-5-yl)piperidin-3-yl)-5-(difluoromethyl)thiophene-2-carboxamide] |
| 0.022 µM | CCN(CC)CCOc1cc(C(F)F)sc1C(=O)N[C@@H]1CCCN(c2cc(C3=CCN(C(=O)OC)C3)n3ncnc(N)c23)C1 [Example 408, methyl (R)-3-(4-amino-5-(3-(3-(2-(diethylamino)ethoxy)-5-(difluoromethyl)thiophene-2-carboxamido)piperidin-1-yl)pyrrolo[2,1-f][1,2,4]triazin-7-yl)-2,5-dihydro-1H-pyrrole-1-carboxylate] |
| 0.003 µM | COc1cscc1C(=O)N[C@@H]1CCCN(c2cc(-c3ccnc(F)c3)n3ncnc(N)c23)C1 [Example 156, (R)-N-(1-(4-amino-7-(2-fluoropyridin-4-yl)pyrrolo[2,1-f][1,2,4]triazin-5-yl)piperidin-3-yl)-4-methoxythiophene-3-carboxamide] |
| 0.023 µM | Cc1nnc2ccc(-c3cc(N4CCC[C@@H](NC(=O)c5ccc(Cl)s5)C4)c4c(N)ncnn34)cn12 [Example 254] |
| 0.041 µM | CN(C)CCOc1c(C(=O)N[C@@H]2CCCN(c3cc(-c4ccc(C#N)nc4)n4ncnc(N)c34)C2)[nH]c2ccccc12 [Example 367, (R)-N-(1-(4-amino-7-(6-cyanopyridin-3-yl)pyrrolo[2,1-f][1,2,4]triazin-5-yl)piperidin-3-yl)-3-(2-(dimethylamino)ethoxy)-1H-indole-2-carboxamide] |
| 0.02 µM | Nc1ncnn2c(-c3ccnc(F)c3)cc(N3CCC[C@@H](NC(=O)c4csc5c4CCCC5)C3)c12 [Example 160, (R)-N-(1-(4-amino-7-(2-fluoropyridin-4-yl)pyrrolo[2,1-f][1,2,4]triazin-5-yl)piperidin-3-yl)-4,5,6,7-tetrahydrobenzo[b] thiophene-3-carboxamide, TFA] |
| 0.006 µM | COc1c(C(=O)N[C@@H]2CCCN(c3cc(-c4ccnc(F)c4)n4ncnc(N)c34)C2)csc1Cl [Example 158, (R)-N-(1-(4-amino-7-(2-fluoropyridin-4-yl)pyrrolo[2,1-f][1,2,4]triazin-5-yl)piperidin-3-yl)-5-chloro-4-methoxythiophene-3-carboxamide] |
| 0.246 µM | CC(=O)N1CC=C(c2cc(N3CCC[C@@H](NC(=O)c4cc(C)on4)C3)c3c(N)ncnn23)C1 [Example 455, (R)-N-(1-(7-(1-acetyl-2,5-dihydro-1H-pyrrol-3-yl)-4-aminopyrrolo[2,1-f][1,2,4]triazin-5-yl)piperidin-3-yl)-5-methylisoxazole-3-] |
| 0.771 µM | COC(=O)C12CC(C(=O)N[C@@H]3CCCN(c4cc(C5=CCN(C(C)=O)C5)n5ncnc(N)c45)C3)(C1)C2 [Example 478, Methyl(R)-3-((1-(7-(1-acetyl-2,5-dihydro-1H-pyrrol-3-yl)-4-aminopyrrolo[2,1-f][1,2,4]triazin-5-yl)piperidin-3-yl)carbamoyl)bicyclo[1.1.1]pentane-1-carboxylate] |
| 0.018 µM | N#Cc1ncc(-c2cc(N3CCC[C@@H](NC(=O)c4ccc(Cl)s4)C3)c3c(N)ncnn23)cc1C(F)(F)F [Example 531, (R)-N-(1-(4-amino-7-(6-cyano-5-(trifluoromethyl)pyridin-3-yl)pyrrolo[2,1-f][1,2,4]triazin-5-yl)piperidin-3-yl)-5-chlorothiophene-2-carboxamide] |
| 0.007 µM | CC(=O)N1CC=C(c2cc(N3CCC[C@@H](NC(=O)c4cccc(NCCN(C)C)n4)C3)c3c(N)ncnn23)C1 [Example 761, (R)-N-(1-(7-(1-acetyl-2,5-dihydro-1H-pyrrol-3-yl)-4-aminopyrrolo[2,1-f][1,2,4]triazin-5-yl)piperidin-3-yl)-6-((2-(dimethylamino)ethyl)amino)picolinamide] |
| 0.003 µM | N#Cc1ccc(-c2cc(N3CCC[C@@H](NC(=O)c4ccc(C(F)F)s4)C3)c3c(N)ncnn23)cn1 [Example 487, (R)-N-(1-(4-amino-7-(6-cyanopyridin-3-yl)pyrrolo[2,1-f][1,2,4]triazin-5-yl)piperidin-3-yl)-5-(difluoromethyl)thiophenc-2-carboxamide] |
| 0.012 µM | COC(=O)N1CC=C(c2cc(N3CCC[C@@H](NC(=O)c4sc(Cl)cc4OC4CCN(CC(F)F)CC4)C3)c3c(N)ncnn23)C1 [Example 566, methyl (R)-3-(4-amino-5-(3-(5-chloro-3-((1-(2,2-difluoroethyl)piperidin-4-yl)oxy)thiophene-2-carboxamido)piperidin-1-yl)pyrrolo[2,1-f][1,2,4]triazin-7-yl)-2,5-dihydro-1H-pyrrole-1-carboxylate] |
| 0.006 µM | CC(=O)N1CC=C(c2cc(N3CCC[C@@H](NC(=O)c4ccc(Cl)s4)C3)c3c(N)ncnn23)C1 [Example 731, (R)-N-(1-(7-(1-acctyl-2,5-dihydro-1H-pyrrol-3-yl)-4-aminopyrrolo[2,1-f][1,2,4]triazin-5-yl)piperidin-3-yl)-5-chlorothiophene-2-carboxamide] |
| 0.016 µM | COC(=O)N1CC=C(c2cc(N3CCC[C@@H](NC(=O)c4sc(Cl)cc4OCCN4CC(F)(F)C4)C3)c3c(N)ncnn23)C1 [Example 288, Methyl (R)-3-(4-amino-5-(3-(5-chloro-3-(2-(3,3-difluoroazetidin-1-yl)ethoxy)thiophene-2-carboxamido)piperidin-1-yl)pyrrolo[2,1-f][1,2,4]triazin-7-yl)-2,5-dihydro-1H-pyrrole-1-carboxylate] |
| 0.017 µM | CN(C)CCOc1cc(C(F)F)sc1C(=O)N[C@@H]1CCCN(c2cc(-c3ccc(=O)n(CC(F)F)c3)n3ncnc(N)c23)C1 [Example 309, (R)-N-(1-(4-amino-7-(1-(2,2-difluoroethyl)-6-oxo-1,6-dihydropyridin-3-yl)pyrrolo[2,1-f][1,2,4]triazin-5-yl)piperidin-3-yl)-5-(difluoromethyl)-3-(2-(dimethylamino)ethoxy)thiophene-2-carboxamide] |
| 0.164 µM | Nc1ncnn2c(-c3cncnc3)cc(N3CCC[C@@H](NC(=O)c4cc5cc(F)ccc5[nH]4)C3)c12 [Example 516, (R)-N-(1-(4-amino-7-(pyrimidin-5-yl)pyrrolo[2,1-f][1,2,4]triazin-5-yl)piperidin-3-yl)-5-fluoro-1H-indole-2-carboxamide] |
| 0.005 µM | Nc1ncnn2c(-c3ccnc(F)c3)cc(N3CCC[C@@H](NC(=O)c4ccc(C(F)F)s4)C3)c12 [Example 152, (R)-N-(1-(4-amino-7-(2-fluoropyridin-4-yl)pyrrolo[2,1-f][1,2,4]triazin-5-yl)piperidin-3-yl)-5-(difluoromethyl)thiophene-2-carboxamide, TFA] |

Reference: patent US20260250290A1 (BRISTOL-MYERS SQUIBB COMPANY, priority 2023, published 2026)
